Reference: ChEMBL document CHEMBL3124826, “Discovery of AMG 232, a potent, selective, and orally bioavailable MDM2-p53 inhibitor in clinical development” (J Med Chem, 2014)

Assay: Oral bioavailability in cynomolgus monkey
Type: ADME, organism-based, Macaca fascicularis
Details: in vivo

bioavailability: 51%
Structure (SMILES): CC(C)[C@@H](CS(=O)(=O)C(C)C)N1C(=O)[C@@](C)(CC(=O)O)C[C@H](c2cccc(Cl)c2)[C@H]1c1ccc(Cl)cc1 [NAVTEMADLIN]
